Patent US20240366644A1, “ANTI-INFLAMMATORY APPLICATION OF GINSENOSIDE RD” (priority 2022, published 2024)

Test system: COVID-19 Delta virus-infected mice
Test: IL-1β and MCP-1 expression (RT-qPCR) in lung homogenates of COVID-19 Delta virus-infected mice
Format: in vivo, hACE2 transgenic C57BL/6 mice
Details: 20 mg/kg administration group

Compound: CC(C)=CCC[C@](C)(O[C@@H]1O[C@H](CO)[C@@H](O)[C@H](O)[C@H]1O)[C@H]1CC[C@]2(C)[C@@H]1[C@H](O)C[C@@H]1[C@@]3(C)CC[C@H](O[C@@H]4O[C@H](CO)[C@@H](O)[C@H](O)[C@H]4O[C@@H]4O[C@H](CO)[C@@H](O)[C@H](O)[C@H]4O)C(C)(C)[C@@H]3CC[C@]12C [Ginsenoside Rd, ginsenoside Rd]
- ability to inhibit the overexpression of inflammatory mediators compared with Dexamethasone: considerable to that of Dexamethasone
